Results reported in US4966893A, “Method for treatment of senile dementia” (priority 1989, dated 1990).

Key:
[1] = test system: synaptosomes from whole rat brain; assay: release of 3H-ACh from synaptosomes under low [K] and high [K] conditions; format: cell-based; details: FIG. 1
Experimental: Pinched off nerve endings (synaptosomes) from whole rat brain were first incubated in the presence of the precursor ^3 H-choline, which is converted intracellularly to ^3 H-ACh. The release of ACh from synaptosomes was quantitated under low [K] and high [K] conditions intended to simulate physiological stimulation.

synaptosomes = assay: electrically stimulated 3H-acetylcholine release from perfused synaptosomes; format: cell-based, rat; details: for electrically stimulated release of ACh (S2/S1 ratio): 10^-6 M drug during the last 25 minutes of perfusion, electrical field stimulation, FIGS. 2 and 3
Experimental: Using a different protocol, synaptosomes, which had been previously incubated with ^3 H-choline, as in the first series of experiments, were continually perfused with HEPES-buffered Krebs solution. The release of ACh was effected by subjecting the synaptosomes to electrical field stimulation, which more closely mimics physiological stimulation. […] The results obtained by calculating the ratio of the amounts of ACh released during the two periods of electrical stimulation (the areas under the curves, S2/S1) indicate that both Rb1 and Rg1 increase the electrically stimulated release. In addition, Rg1 stimulates the resting release of ^3 H-ACh, as indicated, by the increase in the resting efflux of ^3 H-ACh when the drug was first added. While the net amount of ^3 H-ACh released in each run can vary, depending on the amount of protein on the filter and aging of the synaptosomes, the S2/S1 ratio remains quite constant from run to run using a given chamber. Therefore, in each experiment the same chamber was used for both control and test-drug runs.

rat brain synaptosomes = assay: resting and voltage dependent uptake of 45Ca into synaptosomes; format: cell-based; details: compared with depolarized (52.5 K) uptake, FIG. 6
Text: If this compound were acting as a non-specific depolarizing agent, one would predict the resting uptake of ^45 Ca would be stimulated several fold, to the same level as the depolarized (52.5 K) uptake.

SMILES | release of 3H-ACh [1] | electrically stimulated release of ACh (S2/S1 ratio) (synaptosomes) | resting uptake of 45Ca (rat brain synaptosomes) | resting release (resting efflux) of 3H-ACh (synaptosomes; 10^-6 M drug, when the drug was first added)
CC(C)=CCC[C@](C)(O[C@@H]1O[C@H](CO[C@@H]2O[C@H](CO)[C@@H](O)[C@H](O)[C@H]2O)[C@@H](O)[C@H](O)[C@H]1O)[C@H]1CC[C@]2(C)[C@@H]1[C@H](O)C[C@@H]1[C@@]3(C)CC[C@H](O[C@@H]4O[C@H](CO)[C@@H](O)[C@H](O)[C@H]4O[C@@H]4O[C@H](CO)[C@@H](O)[C@H](O)[C@H]4O)C(C)(C)[C@@H]3CC[C@]12C [Rb1, ginsenoside Rb1] | increased | increase | only a minimal increase | –
CC(C)=CCC[C@](C)(O[C@@H]1O[C@H](CO)[C@@H](O)[C@H](O)[C@H]1O)[C@H]1CC[C@]2(C)[C@@H]1[C@H](O)C[C@@H]1[C@@]3(C)CC[C@H](O)C(C)(C)[C@@H]3[C@@H](O[C@@H]3O[C@H](CO)[C@@H](O)[C@H](O)[C@H]3O)C[C@]12C [Rg1, ginsenoside Rg1] | – | increase | – | stimulates
